{"source": "patent US5270344A", "about": "“Method of treating a systemic disorder using trioxolane and diperoxide compounds” (priority 1992, dated 1993)", "key": {"Leishmania major": {"tested_on": "Leishmania major", "design": "species or system balb/c mice", "conditions": "mouse, in vivo"}, "S. aureus [1]": {"tested_on": "S. aureus", "assay_type": "cell-based, Staphylococcus aureus"}, "S. epidermidis": {"tested_on": "S. epidermidis", "assay_type": "cell-based, Staphylococcus epidermidis"}, "N. gonorrhoea": {"tested_on": "N. gonorrhoea", "assay_type": "cell-based, Neisseria gonorrhoea"}, "Salmonella [2]": {"tested_on": "Salmonella", "assay_type": "cell-based, Salmonella spp."}, "Shigella [3]": {"tested_on": "Shigella", "assay_type": "cell-based, Shigella spp."}, "EPEC/ETEC [4]": {"tested_on": "EPEC/ETEC", "assay_type": "cell-based, enteropathogenic/enterotoxigenic Escherichia coli"}, "Pseudomonas [5]": {"tested_on": "Pseudomonas", "assay_type": "cell-based, Pseudomonas spp."}, "Kiebisella": {"tested_on": "Kiebisella", "assay_type": "cell-based, Klebsiella spp."}, "E. coli": {"tested_on": "E. coli", "assay_type": "cell-based"}, "Archromobacter": {"tested_on": "Archromobacter", "assay_type": "cell-based, Achromobacter"}, "C. albicans": {"tested_on": "C. albicans", "assay_type": "cell-based, Candida albicans"}, "Tri. violaceum": {"tested_on": "Tri. violaceum", "assay_type": "cell-based, Trichophyton violaceum"}, "Tri. canis": {"tested_on": "Tri. canis", "assay_type": "cell-based, Trichophyton canis"}, "Cryptococcus": {"tested_on": "Cryptococcus", "assay_type": "cell-based, Cryptoccus spp."}, "Ph. verrucose": {"tested_on": "Ph. verrucose", "assay_type": "cell-based, Phialophora verrucose"}, "Penicillium": {"tested_on": "Penicillium", "assay_type": "cell-based, Penicillium spp."}, "S. aureus [6]": {"tested_on": "S. aureus", "assay_type": "cell-based, Staphylococcus aureus", "remark": "listed apart in the source"}, "EPEC/ETEC [7]": {"tested_on": "EPEC/ETEC", "assay_type": "cell-based, enteropathogenic/enterotoxigenic Escherichia coli", "remark": "listed apart in the source"}, "Salmonella [8]": {"tested_on": "Salmonella", "assay_type": "cell-based, Salmonella spp.", "remark": "listed apart in the source"}, "Shigella [9]": {"tested_on": "Shigella", "assay_type": "cell-based, Shigella spp.", "remark": "listed apart in the source"}, "Pseudomonas [10]": {"tested_on": "Pseudomonas", "assay_type": "cell-based, Pseudomonas spp.", "remark": "listed apart in the source"}, "Candida [11]": {"tested_on": "Candida", "assay_type": "cell-based, Candida spp."}, "S. aureus [12]": {"tested_on": "S. aureus", "assay_type": "cell-based, Staphylococcus aureus", "remark": "listed apart in the source"}, "EPEC/ETEC [13]": {"tested_on": "EPEC/ETEC", "assay_type": "cell-based, enteropathogenic/enterotoxigenic Escherichia coli", "remark": "listed apart in the source"}, "Salmonella [14]": {"tested_on": "Salmonella", "assay_type": "cell-based, Salmonella spp.", "remark": "listed apart in the source"}, "Shigella [15]": {"tested_on": "Shigella", "assay_type": "cell-based, Shigella spp.", "remark": "listed apart in the source"}, "Pseudomonas [16]": {"tested_on": "Pseudomonas", "assay_type": "cell-based, Pseudomonas spp.", "remark": "listed apart in the source"}, "Candida [17]": {"tested_on": "Candida", "assay_type": "cell-based, Candida spp.", "remark": "listed apart in the source"}, "S. aureus [18]": {"tested_on": "S. aureus", "assay_type": "cell-based, Staphylococcus aureus", "remark": "listed apart in the source"}, "Salmonella [19]": {"tested_on": "Salmonella", "assay_type": "cell-based, Salmonella spp.", "remark": "listed apart in the source"}, "Shigella [20]": {"tested_on": "Shigella", "assay_type": "cell-based, Shigella spp.", "remark": "listed apart in the source"}, "EPEC/ETEC [21]": {"tested_on": "EPEC/ETEC", "assay_type": "cell-based, enteropathogenic/enterotoxigenic Escherichia coli", "remark": "listed apart in the source"}, "Pseudomonas [22]": {"tested_on": "Pseudomonas", "assay_type": "cell-based, Pseudomonas spp.", "remark": "listed apart in the source"}, "Candida [23]": {"tested_on": "Candida", "assay_type": "cell-based, Candida spp.", "remark": "listed apart in the source"}, "[24]": {"tested_on": "Myeloma cell line (×63 balb/c line)", "assay_type": "cell-based, balb/c (mouse)"}, "human spermatozoa": {"tested_on": "human spermatozoa", "assay_type": "cell-based"}, "[25]": {"tested_on": "commonly encountered microorganisms", "assay_type": "cell-based, bacteria and fungi"}, "lymphocytes": {"tested_on": "lymphocytes", "design": "species or system Balb/c mice", "conditions": "mouse, in vivo"}, "Leishmania donova": {"tested_on": "Leishmania donova", "design": "species or system Balb/c mice", "conditions": "mouse, in vivo"}, "[26]": {"conditions": "rabbit, in vivo", "experimental": "Six healthy New Zealand White rabbits were selected for study. The rabbits' eyes were judged free of irritation prior to the study by examining with a pen light and under UV light after installation of 2% fluorescein stain. A 1% solution of the trioxolane or diperoxide derivative of linalool was prepared in isopropyl myristate. A 0.1 ml portion of this test solution was instilled into the lower conjunctival sac of one eye of each rabbit. The lids were held closed for one second. The opposite eye of each rabbit received 0.1 ml of the isopropyl myristate, as control. […] At 24, 48, and 72 hours post dosing, the eyes were examined with a pen light and re-examined with UV light following fluorescein staining of the cornea."}}, "note": "Read-outs that look alike come from different tables or passages of the source.", "data": [{"compound": "O.O.O.O.O.O.O.O.O.O=C([O-])[C@@H]1[O][Sb](=[O])([O][Sb]2(=[O])[O][C@H]([C@H](O)CO)[C@H](O)[C@H](C(=O)[O-])[O]2)[O][C@H]([C@H](O)CO)[C@@H]1O.[Na+].[Na+].[Na+]", "note": "(some centres unmarked) [Pentostam, reference compound]", "values": [{"measurement": "Dead, Day 14", "setting": "Leishmania major; ip", "result": 1, "unit": "dead"}, {"measurement": "Lesions, Day 0", "setting": "Leishmania major; ip", "result": "Large lesions"}, {"measurement": "Lesions, Day 14", "setting": "Leishmania major; ip", "result": "Large lesions breaking"}]}, {"compound": "CCC1OOC(CCO)O1", "note": "(stereo not drawn) [Trioxolane derivative of cis 3-hexene-1-ol]", "values": [{"measurement": "MIC", "setting": "S. aureus [1]", "result": 250, "unit": "µg/mL"}, {"measurement": "lowest concentration inhibiting at least one isolate", "setting": "S. aureus [1]", "result": 0.031, "unit": "mg/mL"}, {"measurement": "MIC", "setting": "S. epidermidis", "result": 25, "unit": "µg/mL"}, {"measurement": "lowest concentration inhibiting at least one isolate", "setting": "S. epidermidis", "result": 0.031, "unit": "mg/mL"}, {"measurement": "MIC", "setting": "N. gonorrhoea", "result": 3.5, "unit": "µg/mL"}, {"measurement": "lowest concentration inhibiting at least one isolate", "setting": "N. gonorrhoea", "result": 0.0019, "unit": "mg/mL"}, {"measurement": "MIC", "setting": "Salmonella [2]", "result": 7, "unit": "µg/mL"}, {"measurement": "MIC", "setting": "Shigella [3]", "result": 250, "unit": "µg/mL"}, {"measurement": "MIC", "setting": "EPEC/ETEC [4]", "result": 250, "unit": "µg/mL"}, {"measurement": "MIC", "setting": "Pseudomonas [5]", "result": 7, "unit": "µg/mL"}, {"measurement": "MIC", "setting": "Kiebisella", "result": 7, "unit": "µg/mL"}, {"measurement": "MIC", "setting": "E. coli", "result": 120, "unit": "µg/mL"}, {"measurement": "MIC", "setting": "Archromobacter", "result": 60, "unit": "µg/mL"}, {"measurement": "MIC", "setting": "C. albicans", "result": 31, "unit": "µg/mL"}, {"measurement": "MIC", "setting": "Tri. violaceum", "result": 150, "unit": "µg/mL"}, {"measurement": "MIC", "setting": "Tri. canis", "result": 150, "unit": "µg/mL"}, {"measurement": "MIC", "setting": "Cryptococcus", "result": 15, "unit": "µg/mL"}, {"measurement": "MIC", "setting": "Ph. verrucose", "result": 150, "unit": "µg/mL"}, {"measurement": "MIC", "setting": "Penicillium", "result": 310, "unit": "µg/mL"}, {"measurement": "MIC agar", "setting": "S. aureus [6]", "result": 120, "unit": "µg/mL"}, {"measurement": "MIC agar", "setting": "EPEC/ETEC [7]", "result": 31, "unit": "µg/mL"}, {"measurement": "MIC agar", "setting": "Salmonella [8]", "result": 7, "unit": "µg/mL"}, {"measurement": "MIC agar", "setting": "Shigella [9]", "result": 7, "unit": "µg/mL"}, {"measurement": "MIC agar", "setting": "Pseudomonas [10]", "result": 7, "unit": "µg/mL"}, {"measurement": "MIC agar", "setting": "Candida [11]", "result": 31, "unit": "µg/mL"}, {"measurement": "MIC broth", "setting": "S. aureus [12]", "result": 620, "unit": "µg/mL"}, {"measurement": "MIC broth", "setting": "EPEC/ETEC [13]", "result": 620, "unit": "µg/mL"}, {"measurement": "MIC broth", "setting": "Salmonella [14]", "result": 150, "unit": "µg/mL"}, {"measurement": "MIC broth", "setting": "Shigella [15]", "result": 620, "unit": "µg/mL"}, {"measurement": "MIC broth", "setting": "Pseudomonas [16]", "result": 620, "unit": "µg/mL"}, {"measurement": "MIC broth", "setting": "Candida [17]", "result": 310, "unit": "µg/mL"}, {"measurement": "MBC", "setting": "S. aureus [18]", "result": 1250, "unit": "µg/mL"}, {"measurement": "MBC", "setting": "Salmonella [19]", "result": 2500, "unit": "µg/mL"}, {"measurement": "MBC", "setting": "Shigella [20]", "result": 1250, "unit": "µg/mL"}, {"measurement": "MBC", "setting": "EPEC/ETEC [21]", "result": 1250, "unit": "µg/mL"}, {"measurement": "MBC", "setting": "Pseudomonas [22]", "result": 1250, "unit": "µg/mL"}, {"measurement": "MBC", "setting": "Candida [23]", "result": 1250, "unit": "µg/mL"}, {"measurement": "Time to kill myeloma cell line", "setting": "[24]", "result": "≤ 48", "unit": "h"}, {"measurement": "Time to kill human spermatozoa", "setting": "human spermatozoa", "result": "≤ 1", "unit": "min"}, {"measurement": "Activity compared with Geraniol trioxolane", "setting": "[25]", "result": "more active than Geraniol trioxolane"}, {"measurement": "Activity compared with conventional drugs", "setting": "[25]", "result": "more active than conventional drugs"}, {"measurement": "Effect of water on direct bioactivity", "setting": "[25]", "result": "significantly reduces the direct bioactivity"}, {"measurement": "New clones of lymphocytes in bone marrow", "setting": "lymphocytes", "result": "increase in new clones of lymphocytes"}, {"measurement": "Death, Day 14", "setting": "Leishmania major", "result": "No death"}, {"measurement": "General health, Day 14", "setting": "Leishmania major", "result": "Animals healthy and active"}, {"measurement": "Lesions, Day 0", "setting": "Leishmania major", "result": "Large lesions"}, {"measurement": "Lesions, Day 14", "setting": "Leishmania major", "result": "Lesions small and dry"}, {"measurement": "Dead, Day 14", "setting": "Leishmania major; ip", "result": 2, "unit": "dead"}, {"measurement": "Lesions, Day 0", "setting": "Leishmania major; ip", "result": "Large lesions"}, {"measurement": "Lesions, Day 14", "setting": "Leishmania major; ip", "result": "Lesions scabbed"}, {"measurement": "Palate involvement, Day 14", "setting": "Leishmania major; ip", "result": 2}, {"measurement": "Clearing parasites from the viscera", "setting": "Leishmania donova", "result": "perform better than Pentostam"}]}, {"compound": "linalool trioxolane", "values": [{"measurement": "Ocular irritation", "setting": "[26]", "result": "non-irritant to ocular tissues of the rabbit"}]}]}
